According to ChEMBL document CHEMBL3046232, “Synthesis, pharmacological evaluation and molecular docking studies of indanone derivatives” (2012):

Key:
Type in all cases: functional
[1] = tested on: Rattus norvegicus; test: Anti-inflammatory activity in Rattus norvegicus Wistar albino (rat) assessed as protection against carrageenan-induced paw edema at 50 mg/kg after 30 min
[2] = tested on: Escherichia coli; test: Antimicrobial activity against at Escherichia coli at 50 ug/ml by cup-plate method; conditions: read-out: IZ
[3] = tested on: Aspergillus niger; test: Antimicrobial activity against at Aspergillus niger at 100 ug/ml by cup-plate method; conditions: read-out: IZ
[4] = tested on: Rattus norvegicus; test: Anti-inflammatory activity in Rattus norvegicus Wistar albino (rat) assessed as protection against carrageenan-induced paw edema at 50 mg/kg after 90 min
[5] = tested on: Escherichia coli; test: Antimicrobial activity against at Escherichia coli at 100 ug/ml by cup-plate method; conditions: read-out: IZ
[6] = tested on: Mus musculus; test: Analgesic activity in Mus musculus Swiss albino (mouse) assessed as increase in reaction time of paw licking or jump response at 50 mg/kg, po after 60 min by hot plate method
[7] = tested on: Mus musculus; test: Analgesic activity in Mus musculus Swiss albino (mouse) assessed as increase in reaction time of paw licking or jump response at 50 mg/kg, po after 90 min by hot plate method
[8] = tested on: Rattus norvegicus; test: Anti-inflammatory activity in Rattus norvegicus Wistar albino (rat) assessed as protection against carrageenan-induced paw edema at 50 mg/kg after 3 hr
[9] = tested on: Penicillium chrysogenum; test: Antimicrobial activity against at Penicillium chrysogenum at 25 ug/ml by cup-plate method; conditions: read-out: IZ
[10] = tested on: Penicillium chrysogenum; test: Antimicrobial activity against at Penicillium chrysogenum at 100 ug/ml by cup-plate method; conditions: read-out: IZ
[11] = tested on: Rattus norvegicus; test: Anti-inflammatory activity in Rattus norvegicus Wistar albino (rat) assessed as protection against carrageenan-induced paw edema at 50 mg/kg after 60 min
[12] = tested on: Aspergillus niger; test: Antimicrobial activity against at Aspergillus niger at 25 ug/ml by cup-plate method; conditions: read-out: IZ
[13] = tested on: Escherichia coli; test: Antimicrobial activity against at Escherichia coli at 25 ug/ml by cup-plate method; conditions: read-out: IZ
[14] = tested on: Bacillus subtilis; test: Antimicrobial activity against at Bacillus subtilis at 100 ug/ml by cup plate method; conditions: read-out: IZ
[15] = tested on: Mus musculus; test: Analgesic activity in Mus musculus Swiss albino (mouse) assessed as increase in reaction time of paw licking or jump response at 50 mg/kg, po after 30 min by hot plate method
[16] = tested on: Bacillus subtilis; test: Antimicrobial activity against at Bacillus subtilis at 50 ug/ml by cup plate method; conditions: read-out: IZ
[17] = tested on: Rattus norvegicus; test: Anti-inflammatory activity in Rattus norvegicus Wistar albino (rat) assessed as protection against carrageenan-induced paw edema at 50 mg/kg after 2 hr
[18] = tested on: Penicillium chrysogenum; test: Antimicrobial activity against at Penicillium chrysogenum at 50 ug/ml by cup-plate method; conditions: read-out: IZ
[19] = tested on: Bacillus subtilis; test: Antimicrobial activity against at Bacillus subtilis at 25 ug/ml by cup plate method; conditions: read-out: IZ
[20] = tested on: Aspergillus niger; test: Antimicrobial activity against at Aspergillus niger at 50 ug/ml by cup-plate method; conditions: read-out: IZ
[21] = tested on: Mus musculus; test: Analgesic activity in Mus musculus Swiss albino (mouse) assessed as increase in reaction time of paw licking or jump response at 20 mg/kg, po after 60 min by hot plate method
[22] = tested on: Mus musculus; test: Analgesic activity in Mus musculus Swiss albino (mouse) assessed as increase in reaction time of paw licking or jump response at 20 mg/kg, po after 90 min by hot plate method

O=C1c2ccccc2-c2noc(-c3ccc([N+](=O)[O-])cc3)c21
Activity [1]: 10.92%
zone of inhibition at 50 µg/mL [2]: 13 mm
zone of inhibition at 100 µg/mL [3]: 16.2 mm
Activity [4]: 18.51%
zone of inhibition at 100 µg/mL [5]: 18.5 mm
Activity [6]: 5.91%
Activity [7]: 8.55%
Activity [8]: 17.21%
zone of inhibition at 25 µg/mL [9]: 4.5 mm
zone of inhibition at 100 µg/mL [10]: 15 mm
Activity [11]: 13.35%
zone of inhibition at 25 µg/mL [12]: 4.75 mm
zone of inhibition at 25 µg/mL [13]: 5.5 mm
zone of inhibition at 100 µg/mL [14]: 14.5 mm
Activity [15]: 3.95%
zone of inhibition at 50 µg/mL [16]: 6.75 mm
Activity [17]: 16.21%
zone of inhibition at 50 µg/mL [18]: 11 mm
zone of inhibition at 25 µg/mL [19]: 4.5 mm
zone of inhibition at 50 µg/mL [20]: 13.5 mm

O=C([O-])Cc1ccccc1Nc1c(Cl)cccc1Cl.[Na+] [DICLOFENAC SODIUM]
Activity [21]: 27.59%
Activity [22]: 34.62%
